These results are taken from patent US20120149645A1, “COMPOSITIONS AND MODULATION OF MYOCYTE ENHANCER FACTOR 2 (MEF2)” (EMORY UNIVERSITY, priority 2010, published 2012).

Series [1] has as its system SN4741 cells. Kind of series: Immunocytochemistry, colocalization of MEF2D with MitoTracker. Type of series: cell-based, mouse. The note with it: SN4741 cells and primary midbrain dopamine neurons; toxicant treatment. The method, then: (§1) (A) Reduced binding of MEF2D to ND6 after neurotoxin treatment. SN4741 cells were treated with MPP+ (25 μM) or rotenone (Rot, 100 nM) for 12 hours. […] Control indicates untreated. […] Control indicates untreated. (C) Immunocytochemical analysis of mitochondrial MEF2D after MPP+ and rotenone treatment. SN4741 cells treated as described in (A) were stained (scale bar, 10 μm). […] Experiments were repeated four times. Control indicates untreated. […] SN4741 cells were treated with MPP+ after infection with the control, Mt2Ddn or Mt2DVP16 or MtND6 lentiviruses for 24 hours (upper graph: different doses of MPP+ for 24 hours; lower graph: 5 μM of MPP+ for different times). Cell viability was measured by WST-1 assay (n=4; *p<0.05; **P<0.01). Control indicates the control vector group.
SN4741 cells or primary midbrain DA neurons were plated on glass slides in 24-well plates. Localizations of endogenous and exogenous MEF2D were visualized on a Zeiss LSM5 PASCAL confocal microscope. To visualize colocalization of MEF2D with the mitochondria, cells were stained with MitoTracker (Invitrogen) and anti-MEF2D (BD Bioscience) or anti-FLAG (Sigma) antibodies. Quantification of colocalization of signals was done using “Colocalization Analysis” program of software Image Pro (Media Cybernetics). Overlap coefficients of 50 cells in each group were collected. […]

In series [2] the test system is MEF2D and ND6 proteins. Kind of series: Western blotting of MEF2D, ND6 and PGC1 protein levels in SN4741 cells. Type of series: cell-based, mouse. The note with it: for level of ND6 protein / level of mitochondrial MEF2D protein / level of MEF2D in the nucleus / level of MEF2D in whole cell: SN4741 cells; for level of ND6 protein / level of mitochondrial MEF2D protein: purified mitochondria, MPP+ 25 μM or rotenone 100 nM for 12 hours; for level of MEF2D in the nucleus / level of MEF2D in whole cell: same toxicant condition.
Source text: (§2) (A) Mitochondria-targeting MEF2D (Mt2D) and mitochondria-targeting dominant-negative MEF2D (Mt2Ddn), which lacks the transactivation domain (TAD). […] Control indicates the control vector group. (C) Effects of Mt2D or Mt2Ddn on ND6 expression in SN4741 cells. Over-expression of Mt2Ddn in SN4741 cells reduced ND6 but not PPAR-γ coactivator 1 (PGC1) expression by western blotting (n=4, **p<0.01). Control indicates the control vector group. (D) Effects of over-expression of Mt2D or Mt2Ddn on mRNA levels of mitochondria encoded genes. […] Control indicates the control vector group. (E) Effects of Mt2D or Mt2Ddn on mtDNA L-strand transcription initiation in vitro (n=3; **P<0.01). A human mtDNA fragment containing mitochondrial L-strand promoter (LSP) and ND6 gene was used in the in vitro transcription assay. […] (F) Effects of Mt2D or Mt2Ddn on mtDNA de novo transcription in vivo (n=3; **P<0.01). Control (−) is without primers. Control (+) indicates the control vector group.
as §1
(§3) (A) Diagrams of Mt2DVP16 and MtND6. Mt2DVP16 was constructed by fusion of transactivation domain (TAD) of VP16 with DNA-binding domain of MEF2D and a mitochondria-targeting sequence (Mito). […] (C) Over-expression of Mt2DVP16 attenuated MEF2D siRNA-induced reduction of ND6 expression (n=3, **P<0.01).

Series [3] deals with ND6 mRNA. Kind of series: Real-time PCR of mitochondria-encoded mRNA levels in SN4741 cells. Type of series: cell-based, mouse. The note with it: SN4741 cells; relatively short exposure to toxicant.
Source text: as §2

The test system of series [4] is SN4741 cells. In words: WST-1 cell viability assay. Type of series: cell-based, mouse. The note with it: SN4741 cells; different doses of MPP+ for 24 hours. As for the experimental part:
as §1
WST-1 assay was done using a kit (cat. no. 11644807001) from Roche and following procedures provided by the manufacturer. WST-1 (4-[3-(4-Iodophenyl)-2-(4-nitrophenyl)-2H-5-tetrazolio]-1,3-benzene disulfonate) is a water-soluble tetrazolium salt whose cleavage by cellular enzymes correlates with cell viability. Cells were seeded in 96-well plates and treated as indicated. Than 10 μl/well of premixed WST-1 Cell Proliferation Reagent was added, and the cells were incubated for an additional 4 hr under the same conditions. Absorbance at 450 nm was measured on a multi-well plate reader (Bio-Tek).

For series [5], the system named is MEF2D binding to ND6. In words: ChIP assay of MEF2D binding to the ND6 MEF2 site in purified mitochondria. Type of series: cell-based, mouse. The note with it: for binding of mitochondrial MEF2D to the ND6 MEF2 site: SN4741 cells, MPP+ 25 μM or rotenone 100 nM for 12 hours.
Source text: as §2, §1
Andres et al., J Biol Chem, 1995, 270:23246-23249. Moreover, this putative MEF2 binding site is conserved among several species. To test whether MEF2D binds to this putative MEF2 site, electronic mobility shift assay (EMSA) was performed. N-terminal MEF2D formed a complex with the labeled probe containing the ND6 MEF2 site. […] To corroborate this finding, a chromatin immunoprecipitation (ChIP) assay was carried out using highly purified mitochondria. […] ND6 but not ND2 based primers could amplify the bound sequence (FIG. 3C). Sequence analysis of the DNA bound by MEF2D after amplification confirmed the presence of the ND6 MEF2 site (FIG. 3D).

Series [6] relates to mitochondrial complex I. Kind of series: Mitochondrial complex protein level and activity (BN-PAGE, in-gel staining, quantitative assays). Type of series: cell-based, mouse. The note with it: over-expression in SN4741 cells. The source says:
(§4) (A) Requirement of mitochondrial MEF2D for complex I activity. […] Control indicates the control vector group. (B) Over-expression of ND6 rescued complex I activity reduced by Mt2Ddn. Control indicates the control vector group. (C) Measurement of various complex activities. […] Control indicates the control vector group. (D) Effects of over-expression of Mt2D or Mt2Ddn on mitochondrial function. Mt2Ddn reduced cellular ATP level and elevated H2O2 production in SN4741 cells (n=4; *p<0.05; **P<0.01). Control indicates the control vector group.
(§5) Mitochondrial complex I activity was evaluated initially by blue native-polyacrylamide gel electrophoresis (BN-PAGE) and in-gel activity staining. This assay measures total complex I activity. Rotenone sensitive complex I activity and activities of other mitochondrial complexes were further measured by methods described by Antoni et al., J Biol Chem, 1998, 273:14210-14217. Briefly, parallel assays were performed to measure complex I activity at 340 nm using 2,3-dimethoxy-5-methyl-6-n-decyl-1,4-benzoquinone (DB) (50 μM) as acceptor and NADH (0.8 mM) as donor, in 50 mM Tris (pH 8.0) buffer supplemented with 5 mg/ml BSA either without or with the addition of 4 μM rotenone, which gave total and rotenone insensitive complex I activities, respectively. The difference in value between the two provided a quantified measure of the rotenone-sensitive activity. Mitochondrial membrane potential was detected using a kit (cat. no. 280002) from Stratagene following the procedures provided by the manufacturer. The fluorescent dye JC-1 (5,5′,6,6′-tetrachloro-1,1′,3,3′-tetraethylbenzimidazolyl carbocyanine iodide) stains mitochondria red in a membrane potential dependent manner. Briefly, cells were seeded in 96-well plates at 4×10^4 cells/well with 100 μl culture medium and incubated at 33° C. with 5% CO2. After treatment, 10 μl/well of premixed JC-1 staining solution was added, and the cells were incubated for an additional 30 min under the same conditions. After thorough washes, 100 μl assay buffer was added to each well. Fluorescence signal was detected with excitation and emission at 520 nm and 590 nm, respectively, on a multi-well plate reader (Bio-Tek). Cellular ATP and H202 were measured by Bioluminescent Somatic Cell ATP Assay Kit (Sigma) and Hydrogen Peroxide Assay Kit (Cayman), respectively.

Series [7] deals with SN4741 cells. Kind of series: Mitochondrial functional assays (ATP, H2O2, membrane potential). Type of series: cell-based, mouse. The note with it: over-expression in SN4741 cells.
Source text: as §4, §5

In series [8] the test system is human mtDNA fragment containing mitochondrial L-strand promoter (LSP) and ND6 gene. In words: In vitro mtDNA L-strand transcription assay. Type of series: biochemical.
Source text: as §2

In series [9] the test system is SN4741 cells. In words: Subcellular localization of over-expressed MEF2D constructs. The note with it: over-expressed in SN4741 cells. Type of series: cell-based, mouse.
Source text: (A) Lack of mitochondrial localization by ΔN30MEF2D. […] VDAC, PARP and c-Raf are Mt, Nu and Cy markers, respectively. Control indicates the control vector group. (B) Immunocytochemistry analysis of mitochondrial localization of transfected Flag-MEF2D. […] Experiments were repeated four times. (C, D) Requirement of mtHsp70 for mitochondria-targeting of MEF2D (n=4; **p<0.01). Control indicates untreated. […]. Knocking down mouse mtHsp70 by siRNA reduced MEF2D level in purified mitochondria from SN4741 cells (C). […] MnSOD is a known mtHsp70-imported mitochondrial matrix protein.
as §3
(§6) Control indicates the group co-tranfected with control vector.
SN4741 cells or primary midbrain DA neurons were plated on glass slides in 24-well plates. Localizations of endogenous and exogenous MEF2D were visualized on a Zeiss LSM5 PASCAL confocal microscope. […] Quantification of colocalization of signals was done using “Colocalization Analysis” program of software Image Pro (Media Cybernetics). […]

Series [10] has as its system nuclear MEF2. Kind of series: MEF2 luciferase reporter assay. Type of series: cell-based. The note with it: co-transfected with MEF2 luciferase reporter.
Source text: as §6
MEF2 luciferase reporter assay was done as described Wang et al., J Biol Chem, 2005, 280:16705-16713. Briefly, cells were transiently transfected with various constructs with MEF2 luciferase reporter plasmid (WT, reporter with wild type MEF2 DNA binding sites; mt, reporter with the MEF2 DNA binding sites mutated) using Lipofectimane 2000 (Invitrogen) following procedures provided by the manufacturer. A β-galactosidase expression plasmid was used to determine the efficiency in each transfection. The total amount of DNA for each transfection was kept constant by using control vectors. Cell lysates were analyzed for luciferase and β-galactosidase activity according to the manufacturer's instructions (Roche, cat. no. 11669893001).

Setting [11] is: construct over-expressed in SN4741 cells.

Turning to `C[n+]1ccc(-c2ccccc2)cc1` [MPP+, 1-methyl-4-phenylpyridinium], the “colocalization of MEF2D and MitoTracker signals” value in [1] is given as “preferentially reduced”. In [2], the “level of ND6 protein” value is recorded as “decrease”, the “level of mitochondrial MEF2D protein” value was “decrease”, the “level of MEF2D in the nucleus” value was “not affected” and the “level of MEF2D in whole cell” value is listed as “not affected”. Also, in [3], the “mRNA level of ND6” value is on record as “greatly reduced”. The neuronal viability result in series [4] is given as “loss of neuronal viability in a dose dependent manner”. Besides, the “binding of mitochondrial MEF2D to the ND6 MEF2 site” value in series [5] is reported as “greatly reduced”.

On to `C=C(C)[C@H]1Cc2c(ccc3c2O[C@@H]2COc4cc(OC)c(OC)cc4[C@@H]2C3=O)O1` [rotenone], for which the “colocalization of MEF2D and MitoTracker signals” value in series [1] was “preferentially reduced”. Also, in series [2], the “level of ND6 protein” value was “decrease”, the “level of mitochondrial MEF2D protein” value is given as “decrease”, the “level of MEF2D in the nucleus” value is listed as “not affected” and the “level of MEF2D in whole cell” value is “not affected”. In addition, in [3], the “mRNA level of ND6” value was “greatly reduced”. The “binding of mitochondrial MEF2D to the ND6 MEF2 site” value in [5] is “greatly reduced”.

B1: Mt2D: Mitochondria-targeting active MEF2D: mouse MEF2D 1-493aa with added mitochondria-targeting signal, lacking nuclear localization signals (protein, UniProt Q63943 1-493, looked up, fragment)
chain: MGRKKIQIQRITDERNRQVTFTKRKFGLMKKAYELSVLCDCEIALIIFNHSNKLFQYASTDMDKVLLKYTEYNEPHESRTNADIIETLRKKGFNGCDSPEPDGEDSLEQSPLLEDKYRRASEELDGLFRRYGSSVPAPNFAMPVTVPVSNQSSMQFSNPSSSLVTPSLVTSSLTDPRLLSPQQPALQRNSVSPGLPQRPASAGAMLGGDLNSANGACPSPVGNGYVSARASPGLLPVANGNSLNKVIPAKSPPPPTHNTQLGAPSRKPDLRVITSQGGKGLMHHLTEDHLDLNNAQRLGVSQSTHSLTTPVVSVATPSLLSQGLPFSSMPTAYNTDYQLPSAELSSLPAFSSPAGLALGNVTAWQQPQPPQQPQPPQPPQSQPQPPQPQPQQPPQQQPHLVPVSLSNLIPGSPLPHVGAALTVTTHPHISIKSEPVSPSRERSPAPPPPAVFPAARPEPGEGLSSPAGGSYETGDRDDGRGDFGPTLGLLRPA
modifications: mitochondria-targeting signal added
As to B1, in [2] (setting [11]), the “ND6 protein level / expression” value is on record as “did not significantly change”. For the same molecule, the “mitochondrial complex I activity” value in [6] is on record as “neither increased the protein level nor the activity”. In addition, in series [7], the “cellular ATP level” value is “did not alter” and the “hydrogen peroxide production by mitochondria” value was “did not alter”. Moreover, the mitochondrial membrane potential result in series [7] (JC-1) was “did not alter”. Moreover, the “binding of full length MEF2D to the ND6 MEF2 site” value in [5] (setting [11]) is “modulated”. Besides, the “level of L-strand promoter (LSP) transcripts” value in series [8] is reported as “increases”. Further, the “mitochondrial localization by immunocytochemical staining (MitoTracker)” value in series [9] is given as “targeted exclusively to mitochondria”. The “nuclear MEF2 activity (MEF2 reporter)” value in [10] is “did not affect”.

B2: MEF2D1-131: dominant-negative form of MEF2D which interferes with nuclear MEF2 function (protein, UniProt Q63943 1-131, looked up, fragment)
chain: MGRKKIQIQRITDERNRQVTFTKRKFGLMKKAYELSVLCDCEIALIIFNHSNKLFQYASTDMDKVLLKYTEYNEPHESRTNADIIETLRKKGFNGCDSPEPDGEDSLEQSPLLEDKYRRASEELDGLFRRY
Take B2: the “nuclear MEF2 activity (MEF2 reporter)” value in [10] is given as “interferes with nuclear MEF2 function”.
